Reference: patent US10662204B2 (PFIZER INC., priority 2018, dated 2020)

Key:
[1] = molecular target: T1, GDP-loaded KRAS (1-169) G12C, C51S, C80L, C118S (Homo sapiens, UniProt P01116, C118S/C51S/C80L/G12C); assay: Mass Spectrometry Reactivity Assay (MSRA): covalent adduct of compound and KRAS G12C, Percent Modification; type: binding
T1 construct: GDP-loaded KRAS (1-169) G12C, C51S, C80L, C118S
Procedure, shortened: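 GDP-loaded KRAS(1-169) G12C/C51S/C80L/C118S at 5 μM in 25 mM Hepes pH 7.5, 200 mM NaCl, 5% glycerol incubated at RT with compound (typically 5 or 10 μM final, 1% DMSO). Quenched in formic acid at 1-60 min; intact-protein LC-TOF MS gives % modification = modified/(modified+unmodified).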

KRAS G12C = KRAS G12C (Homo sapiens, UniProt P01116, G12C); assay: Cell Activity Assay: accumulation of GDP-bound KRAS G12C in MIAPaCa-2 cells (Raf-1 RBD capture, MSD readout); type: cell-based; design: endogenous in cells; host or cells: MIAPaCa-2; conditions: 6 hours, assay limit is 30.00
Procedure, shortened: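 MIAPaCa-2 cells exposed 6 h at 37 °C to 3-fold compound dilutions (0.3% DMSO final), then lysed. Active GTP-KRAS captured on Raf-1 RBD-coated plates, detected with anti-pan-Ras and SULFO-TAG secondary by MSD electrochemiluminescence. Signal normalized to DMSO and maximum inhibition; IC50 from 4-parameter fit.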

Row | SMILES | MSRA (% modification) 10 μM 0.50 hr ([1]; 10 μM compound) | IC50 (KRAS G12C) | MSRA (% modification) 5.0 μM 0.017 hr ([1]; 5.0 μM compound) | MSRA (% modification) 5.0 μM 0.25 hr ([1]; 5.0 μM compound, 0.25 hr) | MSRA (% modification) 10 μM 0.25 hr ([1]; 10 μM compound, 0.25 hr)
1 | C=CC(=O)N1CCN(c2ncnc3c(Oc4c(C)c(Cl)cc5[nH]ncc45)nccc23)C[C@H]1C [Example 24A, 1-[(2R)-4-{8-[(6-chloro-5-methyl-1H-indazol-4-yl)oxy]pyrido[3,4-d]pyrimidin-4-yl}-2-methylpiperazin-1-yl]prop-2-en-1-one] | 20% | 4.72 µM |  |  | 
2 | C=CC(=O)N1CCN(c2ncnc3c(Oc4c(Cl)c(F)cc5[nH]ncc45)nccc23)C[C@@H]1C [Example 26A, 1-[(2S)-4-{8-[(5-chloro-6-fluoro-1H-indazol-4-yl)oxy]pyrido[3,4-d]pyrimidin-4-yl}-2-methylpiperazin-1-yl]prop-2-en-1-one] | 14% | 27.6 µM |  |  | 
3 | C=CC(=O)N1CCN(c2nc(O[C@@H]3CN(C)C[C@H]3OCC)nc3c(Oc4c(Cl)c(F)cc5[nH]ncc45)nc(Cl)cc23)CC1 [Example 27G, 1-[4-(6-chloro-8-[(5-chloro-6-fluoro-1H-indazol-4-yl)oxy]-2-{[(3R,4R)-4-ethoxy-1-methylpyrrolidin-3-yl]oxy}pyrido[3,4-d]pyrimidin-4-yl)piperazin-1-yl]prop-2-en-1-one] |  | 0.029 µM | 67% |  | 
4 | C=CC(=O)N1CCN(c2ncnc3c(Oc4c(C)c(Cl)cc5[nH]ncc45)nc(C#N)cc23)CC1 [Example 28A, 4-(4-acryloylpiperazin-1-yl)-8-[(6-chloro-5-methyl-1H-indazol-4-yl)oxy]pyrido[3,4-d]pyrimidine-6-carbonitrile] | 61% | 1.02 µM |  |  | 
5 | C=CC(=O)N1CCN(c2nc(O[C@@H]3CN(C)C[C@H]3OC)nc3c(Oc4c(C)ccc5[nH]ncc45)nccc23)CC1 [Example 28I] |  | 1 µM | 11% |  | 

Further molecules by falling IC50 (KRAS G12C), results first:

Row | MSRA (% modification) 10 μM 0.50 hr ([1]; 10 μM compound) | IC50 (KRAS G12C) | MSRA (% modification) 5.0 μM 0.017 hr ([1]; 5.0 μM compound) | MSRA (% modification) 5.0 μM 0.25 hr ([1]; 5.0 μM compound, 0.25 hr) | MSRA (% modification) 10 μM 0.25 hr ([1]; 10 μM compound, 0.25 hr) | SMILES
6 | 30% | 13.3 µM |  |  |  | C=CC(=O)N1CCN(c2ncnc3c(Oc4c(C)c(Cl)cc5[nH]ncc45)nc(C#N)cc23)C[C@H]1C [Example 27A, 4-[(3R)-4-acryloyl-3-methylpiperazin-1-yl]-8-[(6-chloro-5-methyl-1H-indazol-4-yl)oxy]pyrido[3,4-d]pyrimidine-6-carbonitrile]
7 | 17% | 8.89 µM |  |  |  | C=CC(=O)N1CCN(c2ncnc3c(Oc4c(Cl)c(F)cc5[nH]ncc45)nccc23)C[C@H]1C [Example 25A, 1-[(2R)-4-{8-[(5-chloro-6-fluoro-1H-indazol-4-yl)oxy]pyrido[3,4-d]pyrimidin-4-yl}-2-methylpiperazin-1-yl]prop-2-en-1-one]
8 | 76% | 0.391 µM |  |  | 70% | C=CC(=O)N1CCN(c2ncnc3c(Oc4c(Cl)c(Cl)cc5[nH]ncc45)nccc23)CC1 [Example 29A, 1-(4-{8-[(5,6-dichloro-1H-indazol-4-yl)oxy]pyrido[3,4-d]pyrimidin-4-yl}piperazin-1-yl)prop-2-en-1-one]
9 |  | 0.009 µM | 73% |  |  | C=CC(=O)N1CCN(c2nc(OC[C@]3(F)CCCN(C)C3)nc3c(Oc4c(Cl)c(F)cc5[nH]ncc45)nc(Cl)cc23)CC1 [Example 25G, 1-[4-(6-chloro-8-[(5-chloro-6-fluoro-1H-indazol-4-yl)oxy]-2-{[(3S)-3-fluoro-1-methylpiperidin-3-yl]methoxy}pyrido[3,4-d]pyrimidin-4-yl)piperazin-1-yl]prop-2-en-1-one]
10 |  | 0.004 µM | 83% | 84% |  | C=CC(=O)N1CCN(c2nc(O[C@@H]3CN(C)C[C@H]3OC)nc3c(Oc4c(Cl)c(F)cc5[nH]ncc45)nc(Cl)cc23)CC1 [Example 24G, 1-[4-(6-chloro-8-[(5-chloro-6-fluoro-1H-indazol-4-yl)oxy]-2-{[(3R,4R)-4-methoxy-1-methylpyrrolidin-3-yl]oxy}pyrido[3,4-d]pyrimidin-4-yl)piperazin-1-yl]prop-2-en-1-one]
